Tested on: hind leg scratching behaviour induced in rats by the administration of a known pruritogenic agent
Details: rats challenged s.c. with 5-methoxytryptamine hydrochloride (4 mg/3 mL/kg); test compound by subcutaneous injection in aqueous micelle formulation; scratching score totalled after 25 minutes vs control group
Experimental: The compounds of the invention are evaluated for their activity as antipruritic agents by measuring their ability to inhibit the hind leg scratching behaviour induced in rats by the administration of a known pruritogenic agent. […] The test is performed as follows:
Male Wistar rats (approximately 150 g body weight) are challenged with a pruritogen by subcutaneous injection of 5-methoxytryptamine hydrochloride (4 mg/3 mL/kg) dissolved in physiological saline into the scruff of the neck. At this dose a constant and quantifiable hindleg scratching response lasting up to 90 minutes is obtained.
The test compound is administered to the test animals by subcutaneous injection in an aqueous micelle formulation. The test compound is prepared in the following manner. […] The compounds can be administered pre- or post-challenge or may be administered at the same time as the pruritogenic challenge.
After the pruritogen challenge has been administered, hindleg scratching is scored for each animal by recording the presence or absence of scratching during each 30 second interval as 1 or 0 scored respectively. The score for each animal is totalled after 25 minutes (maximum score 50).

Structure (SMILES): CCOCCN1CC[C@@](C)(c2cccc(O)c2)[C@H](C)C1 (racemic) [Example 5]
- anti-pruritic activity: display anti-pruritic activity

Reference: patent US6518282B1, “4-Arylpiperidine derivatives for the treatment of pruritus” (Pfizer Inc., priority 1999, dated 2003)
